Laboratory results published in patent US10526316B2, “Quinoxaline and pyridopyrazine derivatives as PI3Kβ inhibitors” (Janssen Pharmaceutica NV, priority 2015, dated 2020).

How the values were obtained:
[1] = system: Akt phosphorylated at Ser473 in PC-3 cells; assay: Cellular assay: phosphorylation of Akt at Ser473 in PC-3 cells (MSD ELISA); type: cell-based; settings: Homo sapiens, PC-3, 1 h, PC-3 cells, 60 min compound incubation, MSD ELISA; read-out: IC50 pAkt_S473
Method in brief: (§1)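 Electrochemiluminescent sandwich ELISA read-out: phospho-specific capture (Ser473 or Thr308), Sulfo-tag anti-total Akt detection, signal proportional to phospho-Akt. Cells treated 60 min at 37° C with compound, DMSO 0.3%. IC50 fitted from five concentrations.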

[2] = system: Akt phosphorylated at Thr308 in PC-3 cells; assay: Cellular assay: phosphorylation of Akt at Thr308 in PC-3 cells (MSD ELISA); type: cell-based; settings: Homo sapiens, PC-3, 1 h, PC-3 cells, 60 min compound incubation, MSD ELISA; read-out: IC50 pAkt_Thr308
Method in brief: as §1

PI3Kβ = target: T1, PI3Kβ (Homo sapiens, UniProt P42338); assay: Enzyme binding assay (KINOMEscan, DiscoveRx); settings: PIK3Cβ_h, read-out: Kd PIK3Cβ_h
T1 construct: purchased DiscoveRx Corporation, San Diego (contract service, KINOMEscan)
Method in brief: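 Using the KINOMEscan format, the enzyme binding affinity of each compound was determined. Each value is the inhibitor binding constant, Kd (nM).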

PI3Kδ = target: T2, PI3Kδ (Homo sapiens, UniProt O00329); assay: Enzyme binding assay (KINOMEscan, DiscoveRx); settings: PIK3Cδ_h
T2 construct: purchased DiscoveRx Corporation, San Diego (contract service, KINOMEscan)
T2 sequence (O00329 1-1044): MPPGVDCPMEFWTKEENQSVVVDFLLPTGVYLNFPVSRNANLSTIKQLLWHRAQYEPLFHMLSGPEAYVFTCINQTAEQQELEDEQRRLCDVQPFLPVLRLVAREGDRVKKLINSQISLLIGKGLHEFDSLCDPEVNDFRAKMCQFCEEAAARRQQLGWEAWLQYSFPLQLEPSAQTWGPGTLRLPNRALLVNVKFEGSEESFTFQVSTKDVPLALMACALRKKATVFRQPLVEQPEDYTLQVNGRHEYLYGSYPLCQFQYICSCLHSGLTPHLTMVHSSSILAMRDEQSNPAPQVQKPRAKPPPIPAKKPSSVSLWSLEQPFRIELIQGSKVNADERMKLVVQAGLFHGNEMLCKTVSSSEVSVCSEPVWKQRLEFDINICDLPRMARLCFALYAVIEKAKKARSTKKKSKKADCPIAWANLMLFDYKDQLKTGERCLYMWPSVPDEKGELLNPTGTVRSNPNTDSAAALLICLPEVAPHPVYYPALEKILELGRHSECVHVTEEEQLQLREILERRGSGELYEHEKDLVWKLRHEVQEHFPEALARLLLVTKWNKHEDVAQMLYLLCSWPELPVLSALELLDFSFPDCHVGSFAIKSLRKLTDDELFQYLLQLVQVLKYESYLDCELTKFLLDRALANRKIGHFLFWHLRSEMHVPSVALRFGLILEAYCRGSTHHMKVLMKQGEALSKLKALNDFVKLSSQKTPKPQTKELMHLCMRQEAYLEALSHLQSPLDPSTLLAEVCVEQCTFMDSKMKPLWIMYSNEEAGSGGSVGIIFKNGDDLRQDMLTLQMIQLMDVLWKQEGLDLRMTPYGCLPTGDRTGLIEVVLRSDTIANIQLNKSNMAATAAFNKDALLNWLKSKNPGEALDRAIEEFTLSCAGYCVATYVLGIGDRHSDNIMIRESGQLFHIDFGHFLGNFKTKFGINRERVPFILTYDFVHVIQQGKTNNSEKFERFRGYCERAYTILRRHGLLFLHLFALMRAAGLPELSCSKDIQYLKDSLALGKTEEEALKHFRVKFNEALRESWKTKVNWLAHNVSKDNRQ
Method in brief: (§2)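 Uses KINOMEscan technology to determine binding affinity toward the kinase enzymes.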

kinase enzymes [3] = target: T3, kinase enzymes (Homo sapiens, UniProt P42345); assay: Enzyme binding assay (KINOMEscan, DiscoveRx), further kinases of Table A; settings: MTOR_h
T3 construct: purchased DiscoveRx Corporation, San Diego (contract service, KINOMEscan)
Method in brief: as §2

kinase enzymes [4] = target: T4, kinase enzymes (Homo sapiens, UniProt P42336); assay: as above; settings: PIK3Cα_h
T4 construct: purchased DiscoveRx Corporation, San Diego (contract service, KINOMEscan)
Method in brief: as §2

kinase enzymes [5] = target: T5, kinase enzymes (Homo sapiens, UniProt P48736); assay: as above; settings: PIK3Cγ_h
T5 construct: purchased DiscoveRx Corporation, San Diego (contract service, KINOMEscan)
Method in brief: as §2

T1 sequence (P42338 whole entry): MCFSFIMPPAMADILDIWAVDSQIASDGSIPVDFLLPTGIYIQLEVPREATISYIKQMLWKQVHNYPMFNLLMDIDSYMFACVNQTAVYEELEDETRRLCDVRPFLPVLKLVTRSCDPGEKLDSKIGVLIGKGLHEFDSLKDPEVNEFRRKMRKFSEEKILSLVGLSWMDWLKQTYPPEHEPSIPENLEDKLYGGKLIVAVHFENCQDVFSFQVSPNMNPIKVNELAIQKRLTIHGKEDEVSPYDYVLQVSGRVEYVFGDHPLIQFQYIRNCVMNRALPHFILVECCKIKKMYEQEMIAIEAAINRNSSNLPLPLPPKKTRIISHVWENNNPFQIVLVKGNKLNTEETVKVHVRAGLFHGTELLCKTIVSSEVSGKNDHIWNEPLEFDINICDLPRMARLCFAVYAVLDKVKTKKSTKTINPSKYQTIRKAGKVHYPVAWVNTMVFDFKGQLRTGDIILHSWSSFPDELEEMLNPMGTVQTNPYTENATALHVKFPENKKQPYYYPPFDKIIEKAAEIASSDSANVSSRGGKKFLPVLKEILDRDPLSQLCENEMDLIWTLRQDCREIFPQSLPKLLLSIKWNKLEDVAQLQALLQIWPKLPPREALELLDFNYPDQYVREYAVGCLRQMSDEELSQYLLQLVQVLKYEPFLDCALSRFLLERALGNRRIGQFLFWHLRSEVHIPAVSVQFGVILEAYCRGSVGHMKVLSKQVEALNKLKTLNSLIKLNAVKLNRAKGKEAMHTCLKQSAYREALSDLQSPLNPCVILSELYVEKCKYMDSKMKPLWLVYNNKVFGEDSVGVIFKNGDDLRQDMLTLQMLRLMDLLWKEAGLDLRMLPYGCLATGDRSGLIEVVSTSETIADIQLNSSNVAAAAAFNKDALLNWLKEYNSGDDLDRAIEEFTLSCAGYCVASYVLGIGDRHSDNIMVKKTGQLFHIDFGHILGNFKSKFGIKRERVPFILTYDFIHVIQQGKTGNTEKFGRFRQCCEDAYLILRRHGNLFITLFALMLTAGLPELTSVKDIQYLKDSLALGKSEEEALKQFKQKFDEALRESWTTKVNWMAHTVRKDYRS
T5 sequence (P48736 whole entry): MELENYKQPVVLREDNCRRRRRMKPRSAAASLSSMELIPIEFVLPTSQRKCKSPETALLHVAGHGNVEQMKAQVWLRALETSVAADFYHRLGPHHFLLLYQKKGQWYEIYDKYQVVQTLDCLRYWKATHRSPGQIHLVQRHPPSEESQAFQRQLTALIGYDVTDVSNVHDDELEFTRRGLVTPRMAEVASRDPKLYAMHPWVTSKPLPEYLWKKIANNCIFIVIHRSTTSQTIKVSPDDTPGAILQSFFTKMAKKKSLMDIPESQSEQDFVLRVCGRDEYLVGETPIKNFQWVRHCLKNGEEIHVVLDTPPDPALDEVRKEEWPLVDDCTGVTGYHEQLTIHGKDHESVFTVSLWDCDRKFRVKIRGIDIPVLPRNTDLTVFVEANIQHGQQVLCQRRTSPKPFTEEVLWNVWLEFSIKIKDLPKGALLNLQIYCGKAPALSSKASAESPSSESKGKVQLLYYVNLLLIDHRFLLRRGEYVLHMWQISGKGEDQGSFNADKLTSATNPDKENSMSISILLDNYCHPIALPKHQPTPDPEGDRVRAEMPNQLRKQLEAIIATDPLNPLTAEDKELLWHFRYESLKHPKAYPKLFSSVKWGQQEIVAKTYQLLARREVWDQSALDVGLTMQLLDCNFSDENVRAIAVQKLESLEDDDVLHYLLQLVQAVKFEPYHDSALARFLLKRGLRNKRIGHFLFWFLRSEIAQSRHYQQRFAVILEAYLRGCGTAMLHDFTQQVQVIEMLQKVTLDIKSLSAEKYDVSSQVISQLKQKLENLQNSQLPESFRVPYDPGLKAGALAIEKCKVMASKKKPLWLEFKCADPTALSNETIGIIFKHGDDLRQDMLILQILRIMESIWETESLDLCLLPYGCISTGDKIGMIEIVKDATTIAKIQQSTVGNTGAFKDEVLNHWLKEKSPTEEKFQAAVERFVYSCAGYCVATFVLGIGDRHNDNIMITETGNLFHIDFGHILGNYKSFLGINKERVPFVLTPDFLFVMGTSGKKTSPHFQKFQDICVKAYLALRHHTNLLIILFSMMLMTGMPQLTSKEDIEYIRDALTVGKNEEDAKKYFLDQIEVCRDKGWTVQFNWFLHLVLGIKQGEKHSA
T4 sequence (P42336 whole entry): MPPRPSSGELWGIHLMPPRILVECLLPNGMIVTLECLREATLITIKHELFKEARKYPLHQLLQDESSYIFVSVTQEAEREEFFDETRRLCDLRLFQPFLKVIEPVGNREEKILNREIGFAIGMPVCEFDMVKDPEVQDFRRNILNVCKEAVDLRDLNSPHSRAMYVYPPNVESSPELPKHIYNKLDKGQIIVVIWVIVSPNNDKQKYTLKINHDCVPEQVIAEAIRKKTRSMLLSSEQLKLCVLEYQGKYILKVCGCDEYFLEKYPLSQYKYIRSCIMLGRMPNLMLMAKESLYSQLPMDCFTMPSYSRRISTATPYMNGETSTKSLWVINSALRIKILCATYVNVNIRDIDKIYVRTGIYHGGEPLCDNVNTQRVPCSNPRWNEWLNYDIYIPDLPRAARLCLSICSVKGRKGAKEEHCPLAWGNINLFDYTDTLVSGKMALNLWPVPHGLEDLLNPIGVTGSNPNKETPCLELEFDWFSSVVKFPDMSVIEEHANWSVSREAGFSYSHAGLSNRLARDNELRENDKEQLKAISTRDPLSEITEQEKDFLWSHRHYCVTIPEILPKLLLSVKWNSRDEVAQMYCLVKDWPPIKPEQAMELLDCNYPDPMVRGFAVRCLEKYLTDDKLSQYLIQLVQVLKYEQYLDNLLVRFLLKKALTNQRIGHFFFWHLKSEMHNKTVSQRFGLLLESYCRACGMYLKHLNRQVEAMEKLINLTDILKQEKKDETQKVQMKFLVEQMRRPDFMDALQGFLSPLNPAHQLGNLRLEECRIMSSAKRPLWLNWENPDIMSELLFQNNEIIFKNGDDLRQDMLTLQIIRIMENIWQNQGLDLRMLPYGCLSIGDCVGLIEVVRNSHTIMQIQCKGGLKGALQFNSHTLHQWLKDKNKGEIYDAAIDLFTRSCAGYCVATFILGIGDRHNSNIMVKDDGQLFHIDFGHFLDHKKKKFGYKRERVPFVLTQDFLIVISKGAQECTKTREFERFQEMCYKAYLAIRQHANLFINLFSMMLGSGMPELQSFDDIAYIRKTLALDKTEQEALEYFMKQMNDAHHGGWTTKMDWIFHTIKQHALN

SMILES | IC50 [1] [nM] | IC50 [2] [nM] | Kd (PI3Kβ) [nM] | Kd (PI3Kδ) [nM] | melting point [°C] | Kd (kinase enzymes [3]) [nM] | Kd (kinase enzymes [4]) [nM] | Kd (kinase enzymes [5]) [nM]
CN(C(=O)c1cc(NCc2cc(F)cc(F)c2)c2nc(N3CCOCC3)cnc2c1)[C@@H]1CCNC1 [Compound 355] | > 513 | 437 | 13 | 2880 | 80 | 13200 | 4790 | 20900
CC1CN(C(=O)c2cc(C(C)Nc3ccc(F)c(F)c3)c3nc(N4CCOCC4)cnc3c2)CC(C)N1 (stereo not shown) [Compound 357b] | 30 | 14 | 1 | 158 | 120 | > 30200 | 933 | 8130
CN(C)C(=O)c1cc(N(C)Cc2cc(F)cc(F)c2)c2nc(N3CCOCC3)cnc2c1 [Compound 358] | > 513 | > 513 | 148 | 2240 | 80 | > 30200 | 10000 | 17800
CC(C)NCCNC(=O)c1cc(C(C)Nc2ccc(F)c(F)c2)c2nc(N3CCOCC3)cnc2c1 (stereo not shown) [Compound 364] | 49 | 43 | 5 | 813 | 80 | > 30200 | 7410 | 13800
CC(Nc1ccc(F)c(F)c1)c1cc(C(=O)NC[C@H]2CCCN2)cc2ncc(N3CCOCC3)nc12 (stereo partly shown) [Compound 376] | 105 | 85 | 1 | 295 | 130 | > 30200 | 4270 | 5130
Cc1c(F)cccc1NCc1cc(C(=O)N(C)C)cc2ncc(N3CCOCC3)nc12 [Compound 382] | 513 | 91 | 17 | 5010 | 150 | > 30200 | > 30200 | > 30200
Cc1c(F)cccc1CNc1cc(C(=O)NCCN(C)C)cc2ncc(N3CCOCC3)nc12 [Compound 383] | 23 | 6 | 1 | 234 | 172 | 7080 | 1230 | 7940
CN(C)CCNC(=O)c1cc(CNc2cc(F)cc(F)c2)c2nc(N3CCOCC3)cnc2c1 [Compound 394] | ~26.3 | 18 | 0.2 | 776 | 161 | 23400 | 3240 | 12600
CN(C)C(=O)c1cc(N2CCCC2c2cc(F)cc(F)c2)c2nc(N3CCOCC3)cnc2c1 (stereo not shown) [Compound 395] | > 513 | > 513 | 33 | 2240 | 80 | 18200 | 3470 | 14100
CN(C)C(=O)c1cc(N2CCC2c2ccc(F)cc2)c2nc(N3CCOCC3)cnc2c1 (stereo not shown) [Compound 397] | > 513 | > 513 | 36 | 661 | 70 | > 30200 | 2690 | 22900
Cc1c(CNc2cc(C(=O)N(C)C)cc3ncc(N4CCOCC4)nc23)cccc1C(F)(F)F [Compound 399] | > 513 | > 513 | 45 | 5250 | 202 | > 30200 | 2820 | 9330
CN(C)C(=O)c1cc(NCc2ccc(F)cc2)c2nc(N3CCOCC3)cnc2c1 [Compound 400] | 457 | ~372 | 24 | 1590 | 80 | 26300 | 2340 | 18600
C[C@H](Nc1cc(C(=O)N(C)C)cc2ncc(N3CCOCC3)nc12)c1ccc(F)cc1 [Compound 401] | > 513 | > 513 | 550 | 12300 | 80 | 11500 | 1860 | > 30200
CC(Nc1cc(C(=O)N(C)C)cc2ncc(N3CCOCC3)nc12)c1cc(F)cc(F)c1 (stereo not shown) [Compound 402] | > 513 | > 513 | 44 | 4070 | 80 | > 30200 | 4470 | > 30200
